In ChEMBL document CHEMBL1141392, “Green tea catechins potentiate triclosan binding to enoyl-ACP reductase from Plasmodium falciparum (PfENR)” (J Med Chem, 2007):

Legend:
[1] = molecular target: T1, Enoyl-acyl-carrier protein reductase (Plasmodium falciparum, UniProt Q965D5); test: Inhibition of Plasmodium falciparum ENR by fluorescence quenching in presence of quercetin
T1 sequence (Q965D5 whole entry): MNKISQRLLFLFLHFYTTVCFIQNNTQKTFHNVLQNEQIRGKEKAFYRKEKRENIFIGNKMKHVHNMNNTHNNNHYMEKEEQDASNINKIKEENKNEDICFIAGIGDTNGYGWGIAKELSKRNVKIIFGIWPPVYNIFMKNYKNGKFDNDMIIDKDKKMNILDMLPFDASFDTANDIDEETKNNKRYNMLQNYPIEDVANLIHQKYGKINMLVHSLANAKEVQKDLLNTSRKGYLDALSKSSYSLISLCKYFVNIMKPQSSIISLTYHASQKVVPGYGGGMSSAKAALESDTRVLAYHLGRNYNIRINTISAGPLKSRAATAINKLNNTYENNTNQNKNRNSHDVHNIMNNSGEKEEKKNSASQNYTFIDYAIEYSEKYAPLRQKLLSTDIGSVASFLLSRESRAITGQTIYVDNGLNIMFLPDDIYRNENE

[2] = molecular target: T1, Enoyl-acyl-carrier protein reductase; test: Inhibition of Plasmodium falciparum ENR by fluorescence quenching in presence of ECG
[3] = molecular target: T1, Enoyl-acyl-carrier protein reductase; test: Inhibition of Plasmodium falciparum ENR in presence of butein by dilution assay
[4] = molecular target: T1, Enoyl-acyl-carrier protein reductase; test: Inhibition of Plasmodium falciparum ENR by fluorescence quenching in presence of EGCG
[5] = molecular target: T1, Enoyl-acyl-carrier protein reductase; test: Inhibition of Plasmodium falciparum ENR in presence of ECG by dilution assay
[6] = molecular target: T1, Enoyl-acyl-carrier protein reductase; test: Inhibition of Plasmodium falciparum ENR in presence of quercetin by dilution assay
[7] = molecular target: T1, Enoyl-acyl-carrier protein reductase; test: Inhibition of Plasmodium falciparum ENR in presence of quercetin
[8] = molecular target: T1, Enoyl-acyl-carrier protein reductase; test: Inhibition of Plasmodium falciparum ENR in presence of EGC by dilution assay
[9] = molecular target: T1, Enoyl-acyl-carrier protein reductase; test: Inhibition of Plasmodium falciparum ENR by fluorescence quenching in presence of butein
[10] = molecular target: T1, Enoyl-acyl-carrier protein reductase; test: Inhibition of Plasmodium falciparum ENR in presence of ECG
[11] = molecular target: T1, Enoyl-acyl-carrier protein reductase; test: Inhibition of Plasmodium falciparum ENR in presence of EGCG by dilution assay
[12] = molecular target: T1, Enoyl-acyl-carrier protein reductase; test: Inhibition of Plasmodium falciparum ENR in presence of butein
[13] = molecular target: T1, Enoyl-acyl-carrier protein reductase; test: Inhibition of Plasmodium falciparum ENR by fluorescence quenching in presence of EGC
[14] = molecular target: T1, Enoyl-acyl-carrier protein reductase; test: Inhibition of Plasmodium falciparum ENR in presence of EGCG
[15] = molecular target: T1, Enoyl-acyl-carrier protein reductase; test: Inhibition of Plasmodium falciparum ENR in presence of EGC
[16] = molecular target: T1, Enoyl-acyl-carrier protein reductase; test: Inhibition of Plasmodium falciparum ENR
[17] = molecular target: T1, Enoyl-acyl-carrier protein reductase; test: Inhibition of Plasmodium falciparum ENR using crotonyl-CoA substrate
[18] = molecular target: T2, Enoyl-[acyl-carrier-protein] reductase [NADH] FabI (Escherichia coli K-12, UniProt P0AEK4); test: Inhibition of Escherichia coli ENR
T2 sequence (P0AEK4 whole entry): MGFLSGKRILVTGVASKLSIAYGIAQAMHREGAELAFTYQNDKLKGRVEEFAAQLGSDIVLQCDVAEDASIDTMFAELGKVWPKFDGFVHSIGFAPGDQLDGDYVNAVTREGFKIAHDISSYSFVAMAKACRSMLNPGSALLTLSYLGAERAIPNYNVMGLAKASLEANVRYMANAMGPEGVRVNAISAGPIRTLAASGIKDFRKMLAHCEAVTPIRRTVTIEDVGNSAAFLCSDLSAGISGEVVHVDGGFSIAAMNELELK

[19] = molecular target: T1, Enoyl-acyl-carrier protein reductase; test: Inhibition of Plasmodium falciparum ENR using NADH substrate
[20] = molecular target: T1, Enoyl-acyl-carrier protein reductase; test: Inhibition of Plasmodium falciparum ENR in presence of triclosan

Row | Compound | IC50 [16] | Ki [17] | IC50 [18] | Ki [19] | Ki [20] | further results
1 | Oc1cc(Cl)ccc1Oc1ccc(Cl)cc1Cl [TRICLOSAN] | – | – | – | – | – | Ki [1]: 30.5 nM; Ki [2]: 28.3 nM; Ki [3]: 0.798 nM; Ki [4]: 7.29 nM; Ki [5]: 0.0521 nM; Ki [6]: 0.281 nM; Ki [7]: 10 nM; Ki [8]: 0.109 nM; Ki [9]: 71 nM; Ki [10]: 8 nM; Ki [11]: 0.0019 nM; Ki [12]: 13.7 nM; Ki [13]: 52.7 nM; Ki [14]: 1 nM; Ki [15]: 8.25 nM
2 | Oc1cc(O)c2c(c1)O[C@H](c1cc(O)c(O)c(O)c1)[C@H](O)C2 [EPIGALLOCATECHIN] | 7000 nM | 2000 nM | > 100000 nM | 3750 nM | 17.6 nM | –
3 | O=C(O[C@@H]1Cc2c(O)cc(O)cc2O[C@@H]1c1ccc(O)c(O)c1)c1cc(O)c(O)c(O)c1 [EPICATECHIN GALLATE] | 500 nM | 102 nM | 10000 nM | 291 nM | 16 nM | –
4 | O=c1c(O)c(-c2ccc(O)c(O)c2)oc2cc(O)cc(O)c12 [QUERCETIN] | 2500 nM | 473 nM | 20000 nM | 1090 nM | 22 nM | –
5 | O=C(O[C@@H]1Cc2c(O)cc(O)cc2O[C@@H]1c1cc(O)c(O)c(O)c1)c1cc(O)c(O)c(O)c1 [EPIGALOCATECHIN GALLATE] | 250 nM | 79 nM | 15000 nM | 186 nM | 8 nM | –
6 | O=C(/C=C/c1ccc(O)c(O)c1)c1ccc(O)cc1O [BUTEIN] | 12500 nM | 2970 nM | 30000 nM | 5500 nM | 14 nM | –
